From patent US20210361638A1, “FXR AGONISTS FOR THE TREATMENT OF LIVER DISEASES” (NOVARTIS AG, priority 2017, published 2021)
Entries after “also recorded” stand apart in the source; their conditions may differ.

Key:
NASH subjects = conditions: FLINT trial; placebo-treated patients 6%; cited from earlier work
STAM mice = assay: STAM mouse model of NASH; conditions: for NAFLD activity score (NAS): doses 0.1 and 0.3 mg/kg, qd orally weeks 9-12; for Sirius Red-positive areas (pericellular fibrosis): tropifexor 0.03, 0.1, 0.3 mg/kg; for liver triglycerides: tropifexor qd orally weeks 9-12
Description: Further experiments in the STAM model were performed: 2-day old male C57Bl/6J mice were injected with streptozotocin and placed on a high-fat diet (HFD) from weeks 4-12 (HFD-32; CLEA-Japan, Tokyo, Japan). […] Hematoxylin & eosin (H&E)-stained sections were evaluated for nonalcoholic fatty liver disease (NAFLD) activity score (NAS) according to previously defined criteria.
Liver sections were fixed in 4% paraformaldehyde for 48 h and shipped for histopathological analysis.

[1] = Exposure and exploratory exposure-response analysis in NASH patients; type: in vivo, human
FGR5 = FGR5 effects (specificity)
[2] = tested on: ANIT-induced cholestatic rats; assay: ANIT-induced cholestasis rat model; type: in vivo, Sprague-Dawley (SD) rats
Description: Experimental protocols were approved by the local Animal Care and Use Committee and were in compliance with Animal Welfare Act regulations and US regulation (Guide for the Care and Use of Laboratory Animals). […] . The tropifexor-treated rats were sacrificed at 1 and 7 h (n=3/time point) and OCA-treated rats were sacrificed at 1, 3, and 7 h (n=3/time point) after the final dose on day 14 for analysis of target gene expression and serum biomarkers. […] .

NASH mice = assay: Diet-induced (AMLN diet) insulin-resistant NASH mouse model; type: in vivo, C57B16 mice
Source text: A separate model for diet-induced NASH was developed as described by Trevaskis et al. Male C57B16 mice aged […] were maintained on a high fat (40% kcal; Primex), high fructose (22% by weight), and high cholesterol (2% by weight) diet (Research Diets Inc., New Brunswick, N.J. cat. no. D09100301) for 26 weeks to induce NASH. Control animals received low-fat diet (10% kcal) with no fructose or cholesterol (Research Diets, cat. no. D09100304). […] . Expression of collagen, type I, alpha 1 (Col1a1) and tissue inhibitor of metalloproteinase 1 (Timp1) genes was analyzed by real time quantitative PCR.

dogs = assay: Oral gavage toxicity studies in dogs for up to 39 weeks
FGF19 = assay: Pharmacodynamic marker FGF19 with increasing doses; type: in vivo; conditions: increasing doses up to 3000 μg

CC[C@H]1[C@@H](O)[C@@H]2[C@H](CC[C@]3(C)[C@@H]([C@H](C)CCC(=O)O)CC[C@@H]23)[C@@]2(C)CC[C@@H](O)C[C@@H]12 [OCA, 6α-ethyl-chenodeoxycholic acid]
patients with pruritus (NASH subjects): 23%

O=C(O)c1cc(F)c2nc(N3C4CC[C@H]3C[C@H](OCc3c(-c5ccccc5OC(F)(F)F)noc3C3CC3)C4)sc2c1 [tropifexor, 2-[(1R,3r,5S)-3-({5-cyclopropyl-3-[2-(trifluoromethoxy)phenyl]-1,2-oxazol-4-yl}methoxy)-8-azabicyclo[3.2.1]octan-8-yl]-4-fluoro-1,3-benzothiazole-6-carboxylic acid]
Plasma cholesterol levels (STAM mice; FIG. 2 legend): significantly reduced
NAFLD activity score (NAS) (STAM mice): significantly reduced
NAFLD activity score (NAS) (STAM mice; listed as LJN452): significant decrease
fibrosis area in comparison with baseline group (STAM mice; mouse, in vivo): decreased
resolution of the NASH phenotype, comparison with OCA (STAM mice; mouse, in vivo): more effectively than OCA
Sirius Red-positive areas (pericellular fibrosis) (STAM mice): significantly reduced
Sirius Red-positive areas (pericellular fibrosis) (STAM mice; listed as Tropifexor): statistically significant dose-dependent reduction
liver triglycerides (STAM mice): significantly reduced
liver triglycerides (STAM mice; listed as LJN452): reduction
predicted exposure in NASH patients ([1]; 200 μg daily): approximately 80 ng·hr/ml
exposure level in NASH patients ([1]; at 200 μg): 80 ng·h/mL
FGR5 effects (FGR5): no FGR5 effects
quantitation of collagen deposition (fibrosis) ([2]; FIG. 1D, vs vehicle-treated ANIT livers): significantly decreased
serum biochemistry parameters, liver damage, and fibrosis ([2]; FIG. 1 legend): improves
collagen deposition and liver fibrosis ([2]; chronic ANIT treatment, FIG. 1C): highly reduced
AST, ALT, total BAs, total bilirubin, and GGT levels ([2]; doses as low as 0.3 mg/kg, oral qd 5 days, vs vehicle-treated ANIT rats): marked reduction
reduction of cholestatic disease markers, comparison with OCA ([2]; rat, in vivo): more effective than OCA
liver histology: necrosis of the bile duct epithelium, bile duct hyperplasia, inflammatory cell infiltrates ([2]; vs vehicle-treated cholestatic rats, 0.03, 0.3, 1 mg/kg): dose-dependent improvement
hepatic crown-like structures (NASH mice; mid- and high dose tropifexor): completely eliminated
ALT and AST levels (NASH mice; mid-dose level): normalized
collagen deposition in liver (fibrosis), Trichrome staining (NASH mice; mouse, in vivo): strongly abrogates; also recorded: reverses
steatosis by quantification of liver triglycerides (NASH mice; mouse, in vivo): Dose-dependent reduction
mRNA levels of fibrogenic markers Col1a1 and TIMP1 (NASH mice; real time quantitative PCR): dramatically reduced
ALT and AST (NASH mice; relative to vehicle-treated controls, 4 weeks qd orally): dose-dependent reduction
liver inflammation, steatosis, and fibrosis (NASH mice; therapeutic mode): resolved
Mean AUC0-24 h at which hepatocellular hypertrophy was adverse (dogs; females): 507 ng·h/mL
Mean AUC0-24 h at which hepatocellular hypertrophy was adverse (dogs; males): 898 ng·h/mL
pharmacodynamic marker FGF19 (FGF19): continues to rise
